From US10420844B2, “Peptide pharmaceuticals” (Mederis Diabetes LLC, priority 2011, dated 2019) come the findings set out here.

Series [1] concerns the target T1, mu opioid receptor (Homo sapiens, UniProt P35372).
T1 construct: Cerep SA (contract research organization)
Put plainly: mu opioid receptor cellular assay (MOP, agonist and antagonist mode), cAMP readout, Cerep. The format is cell-based. How it is done:
(§1) Compounds were weighed precisely in an amount of approximately 2 mg and assayed in standard cellular assays by the contract research organization Cerep, Inc. (Pullman, Wash.) as executed at their subsidiary, Cerep SA (Le Bois l'Eveque, France). The readout is the amount of cAMP generated in the cells treated with the test compounds, in either agonist or antagonist mode. The assays used were the mu opioid receptor cellular assay (MOP in agonist and antagonist mode), the delta2 opioid receptor cellular assay (DOP in agonist and antagonist mode) and the kappa opioid receptor cellular assay (KOP in agonist and antagonist mode). The assays used are described in Wang, J. B., et al. (1994) FEBS Lett 338: 217-222, Law, P. Y. and Loh, H. H. (1993) Mol Pharmacol 43: 684-693, and Avidor-Reiss, T., et al. (1995) FEBS Lett 361: 70-74. The stimulant for the cells in the DOR antagonist assay was 3×10E-8M DPDPE, a well-accepted DOR literature standard.

Series [2] deals with T2, delta2 opioid receptor (Mus musculus, UniProt P32300).
T2 construct: Cerep SA (contract research organization)
In words: delta2 opioid receptor cellular assay (DOP, agonist and antagonist mode), cAMP readout, Cerep. Format: cell-based. The note with it: in competition with 30 nM DPDPE. The procedure: as §1

Series [3] has as its target T3, PTH1 (PTHR1), SaOS2 cells (Homo sapiens, UniProt Q03431).
T3 construct: host or cells: SaOS2 cells (as named in the result head)
T3 sequence (Q03431 27-593): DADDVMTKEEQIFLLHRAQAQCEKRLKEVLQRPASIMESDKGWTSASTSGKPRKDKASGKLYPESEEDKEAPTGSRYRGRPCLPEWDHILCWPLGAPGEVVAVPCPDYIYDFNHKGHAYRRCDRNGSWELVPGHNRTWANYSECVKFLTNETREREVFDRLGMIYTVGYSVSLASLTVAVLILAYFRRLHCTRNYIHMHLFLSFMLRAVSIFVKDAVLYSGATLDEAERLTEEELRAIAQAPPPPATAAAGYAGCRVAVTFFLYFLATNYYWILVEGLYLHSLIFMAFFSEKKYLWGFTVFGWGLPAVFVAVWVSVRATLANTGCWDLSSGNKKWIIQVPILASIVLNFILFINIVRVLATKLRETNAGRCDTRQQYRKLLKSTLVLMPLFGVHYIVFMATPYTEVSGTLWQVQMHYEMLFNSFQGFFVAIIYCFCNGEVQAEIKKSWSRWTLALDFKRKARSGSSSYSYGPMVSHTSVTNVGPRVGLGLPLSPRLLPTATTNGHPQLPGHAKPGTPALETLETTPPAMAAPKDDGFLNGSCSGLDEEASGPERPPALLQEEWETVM
In words: PTH1 cellular assay, cAMP generated in SaOS2 cells, Cerep. The format is cell-based. The procedure: Compounds were weighed precisely in an amount of approximately 1 mg and assayed in standard cellular assays (cerep SA). The readout is the amount of cAMP generated in the cells treated with the test compounds, in either agonist or antagonist mode.
Compounds were dissolved in water and diluted in assay buffer containing 1% bovine serum albumin.

The nature of series [4]: blood PO4 and Ca levels in rats after a single sc injection. Format: in vivo, rat. The text has this: Following the method of Frolik, C.

“Also recorded” adds a separate entry of the source. Non-standard residues stand in square brackets, D forms with d. Residues, ends and D or L forms follow the SMILES beside them. *: point of attachment. GlcA(β-D,1-O-dodecyl) = CCCCCCCCCCCCO[C@@H]1O[C@H](C(=O)*)[C@@H](O)[C@H](O)[C@H]1O; hArg = N=C(N)NCCCC[C@H](N)C(=O)O; Nle = CCCC[C@H](N)C(=O)O; Ac5c = NC1(C(=O)O)CCCC1; Aib = CC(C)(N)C(=O)O

T1 sequence (P35372 whole entry): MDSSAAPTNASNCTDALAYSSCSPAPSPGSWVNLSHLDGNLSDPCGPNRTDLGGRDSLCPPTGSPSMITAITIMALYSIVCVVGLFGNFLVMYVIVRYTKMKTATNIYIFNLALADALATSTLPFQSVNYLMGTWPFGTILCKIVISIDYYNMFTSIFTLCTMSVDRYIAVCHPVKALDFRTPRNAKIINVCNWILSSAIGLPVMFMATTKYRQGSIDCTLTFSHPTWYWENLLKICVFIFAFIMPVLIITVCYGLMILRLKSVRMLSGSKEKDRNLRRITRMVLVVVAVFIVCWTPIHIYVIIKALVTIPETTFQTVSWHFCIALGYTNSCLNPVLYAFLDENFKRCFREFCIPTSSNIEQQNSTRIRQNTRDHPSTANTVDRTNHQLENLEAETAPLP
T2 sequence (P32300 whole entry): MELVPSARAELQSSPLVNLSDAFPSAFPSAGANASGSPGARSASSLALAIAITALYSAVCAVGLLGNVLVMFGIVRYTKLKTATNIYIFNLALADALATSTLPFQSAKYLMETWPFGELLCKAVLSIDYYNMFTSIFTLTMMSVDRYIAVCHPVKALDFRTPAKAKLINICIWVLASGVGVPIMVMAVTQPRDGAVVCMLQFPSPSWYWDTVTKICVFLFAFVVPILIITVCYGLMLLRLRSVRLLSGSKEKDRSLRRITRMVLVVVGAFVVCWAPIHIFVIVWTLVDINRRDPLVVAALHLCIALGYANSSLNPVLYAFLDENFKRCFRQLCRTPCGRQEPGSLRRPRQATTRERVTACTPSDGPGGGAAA

On to “2′,6′-dimethyl-L-tyrosyl-L-1,2,3,4-tetrahydroisoquinoline-3-carbonyl-L-phenylalanyl-Nε-(1′-methyl R-D-glucuronyl)-L-lysyl-amide [EU-A178]”, for which the “behavior in the MOP agonist assay (FIG. 11)” value in series [1] is reported as “potent, full agonistic behavior”. For the same compound, in series [1] (MOP agonist mode and DOP antagonist mode), the Characterization entry is on record as “Pure MOP Ag; pure DOP antag”. The “action on the DOP receptor (FIG. 11)” value in series [2] was “highly potent action as a pure antagonist”.

With `CCCCCCCCCCCCO[C@@H]1O[C@H](C(=O)NCCCC[C@H](NC(=O)C(C)(C)NC(=O)[C@H](CCC(N)=O)NC(=O)[C@@H](NC(=O)[C@H](Cc2c[nH]c3ccccc23)NC(=O)[C@H](CCCNC(=N)N)NC(=O)[C@H](C)NC(=O)[C@H](CCCCNC(=N)N)NC(=O)[C@H](CCC(N)=O)NC(=O)[C@H](Cc2c[nH]cn2)NC(=O)[C@H](CCCC)NC(=O)[C@H](CC(C)C)NC(=O)[C@H](CCC(N)=O)NC(=O)[C@@H](NC(=O)[C@H](CCC(=O)O)NC(=O)C(C)(C)NC(=O)[C@@H](NC(=O)C2(N)CCCC2)C(C)C)[C@@H](C)CC)[C@@H](C)CC)C(=O)NC(C)(C)C(N)=O)[C@@H](O)[C@H](O)[C@H]1O` [EU-232] (H-[Ac5c]V[Aib]EIQL[Nle]HQ[hArg]ARWIQ[Aib]K(GlcA(β-D,1-O-dodecyl))[Aib]-NH2), in series [3], the Characterization result is “agonist” and the “character of the cellular cAMP response” value is recorded as “super-agonistic response; also recorded: super-agonistic activity”. Besides, the “time of maximal statistically significant effect on blood phosphate” value in series [4] (rat serum, sc dosing, last time point of the assay (FIG. 6)) was found to be 5 h. Also, the “blood calcium levels versus control (saline/vehicle)” value in series [4] (rat, sc, 80 (PTH, EU-232) or 320 (EU-232), all time points) was “No groups were statistically significantly different from control”. In series [4] (rat, sc, G4 320, at 5 hrs), the “blood calcium at maximally effective dose and time point” value is on record as “no elevation”. Moreover, in series [4] (rat, single sc injection, 80 mcg, PO4 did not further diminish after 1 hour), the “blood PO4 levels, 80 mcg groups” value was “transient but not statistically significant decrease”. Besides, the “maximal decrease of blood PO4 from time 0 hr. level” value in series [4] (rat, single sc injection, seen at the 5 hr. time point, statistically significant) was 25-35%.
